The text below walks through data of paper PMC7746945 (Neuro-Oncology, 2020).

SMILES strings stand for the structures.

The conditions of the data set: daily for 42 days, with olaparib 150 mg 3 days/week.

Text: Up to 3 cycles were delivered in the absence of disease progression or unacceptable toxicity. Patients progression free after 3 cycles were eligible for further cycles if approved by sponsor. […] Neurosurgical resection was mandatory in the expansion cohort.
If 2 or more of 6 patients at one dose level experienced a dose limiting toxicity (DLT), this was considered “not tolerated” and designated the maximum administered dose (MAD).

Take `Cn1nnc2c(C(N)=O)ncn2c1=O` [TMZ, temozolomide]: the “MTD / RP2D, TMZ dose” value amounted to 75 mg/m^2.
